Tested on: cholesterol absorption
Assay: Cholesterol Absorption Assay in Mice
Type: in vivo, C57BL/6 male mice
Conditions: at the highest dose tested; oral dosing 0.12-10 mg/kg, [3H]-cholesterol counts in liver and plasma 5 h later
Procedure: Compounds of this invention were determined to inhibit cholesterol absorption employing the Cholesterol Absorption Assay in Mice, below. This assay involves comparing a test compound to ezetimibe with respect to their ability to inhibit cholesterol absorption in mice.
Cholesterol Absorption Assay in Mice:
C57BL/6 male mice (n=6/group), aged 10-14 weeks, were dosed orally with 0.2 ml 0.25% methyl cellulose solution with or without test compound or ezetimibe (0.12-10 mg/kg). Thirty minutes later all of the mice were dosed orally with 0.2 ml […]™ containing 2 μCi [^3H]-cholesterol per mouse. Five hours later, the animals were euthanized, and liver and blood were collected. Cholesterol counts in liver and plasma were determined, and percent inhibition of cholesterol absorption was calculated.

Question: Which “inhibition of cholesterol absorption” value does the source give for `O=C1[C@H](CC[C@H](O)c2ccc(F)cc2)[C@@H](c2ccc(O)cc2)N1c1ccc(F)cc1` [ezetimibe] here?
Answer: Its value is greater than 90%.

From patent US7696177B2, “Anti-hypercholesterolemic compounds” (Merck Sharp & Dohme Corp., priority 2005, dated 2010)
